Test results: ChEMBL document CHEMBL1944561, “Discovery and SAR exploration of a novel series of imidazo[4,5-b]pyrazin-2-ones as potent and selective mTOR kinase inhibitors” (Bioorg Med Chem Lett, 2011)

Legend:
[1] = molecular target: Serine/threonine-protein kinase PAK 4 (Homo sapiens) (UniProt O96013); assay: Inhibition of PAK4 assessed as activity remaining at 10 uM
[2] = molecular target: Tyrosine-protein kinase ABL1 (Homo sapiens) (UniProt P00519); assay: Inhibition of Abl assessed as activity remaining at 10 uM
Sequence of Tyrosine-protein kinase ABL1 (Homo sapiens) (P00519 whole entry): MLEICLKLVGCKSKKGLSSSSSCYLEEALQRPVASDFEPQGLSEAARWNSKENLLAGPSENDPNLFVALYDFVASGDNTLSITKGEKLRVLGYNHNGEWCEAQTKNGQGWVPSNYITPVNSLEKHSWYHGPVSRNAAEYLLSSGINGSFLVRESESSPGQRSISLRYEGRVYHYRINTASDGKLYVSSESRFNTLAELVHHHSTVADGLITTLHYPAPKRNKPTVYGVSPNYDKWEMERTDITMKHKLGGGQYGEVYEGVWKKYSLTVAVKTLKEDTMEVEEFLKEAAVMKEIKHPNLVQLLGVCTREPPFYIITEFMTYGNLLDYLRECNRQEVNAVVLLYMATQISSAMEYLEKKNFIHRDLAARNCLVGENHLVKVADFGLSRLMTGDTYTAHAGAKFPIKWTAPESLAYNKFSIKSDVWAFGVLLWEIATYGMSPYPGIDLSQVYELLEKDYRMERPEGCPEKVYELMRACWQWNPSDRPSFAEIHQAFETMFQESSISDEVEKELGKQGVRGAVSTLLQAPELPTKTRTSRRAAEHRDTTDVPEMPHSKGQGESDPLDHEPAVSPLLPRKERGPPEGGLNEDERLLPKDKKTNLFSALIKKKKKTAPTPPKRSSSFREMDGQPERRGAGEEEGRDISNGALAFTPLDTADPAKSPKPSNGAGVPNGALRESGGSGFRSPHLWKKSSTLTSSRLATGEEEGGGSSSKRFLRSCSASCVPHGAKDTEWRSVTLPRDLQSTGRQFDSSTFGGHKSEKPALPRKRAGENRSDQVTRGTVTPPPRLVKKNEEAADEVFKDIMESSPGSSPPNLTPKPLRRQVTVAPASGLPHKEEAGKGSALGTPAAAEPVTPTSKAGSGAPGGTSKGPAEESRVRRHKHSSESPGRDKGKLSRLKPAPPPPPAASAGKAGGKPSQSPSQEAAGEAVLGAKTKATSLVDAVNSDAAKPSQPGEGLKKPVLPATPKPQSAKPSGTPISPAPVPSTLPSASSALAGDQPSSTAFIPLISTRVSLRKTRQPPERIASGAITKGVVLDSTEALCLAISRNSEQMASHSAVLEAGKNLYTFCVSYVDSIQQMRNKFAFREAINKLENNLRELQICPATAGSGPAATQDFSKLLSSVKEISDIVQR

[3] = Inhibition of p70S6K assessed as activity remaining at 10 uM
[4] = molecular target: T1, Calcium/calmodulin-dependent protein kinase type IV (Homo sapiens) (UniProt Q16566); assay: Inhibition of CaMK4 assessed as activity remaining at 10 uM
T1 sequence (whole entry): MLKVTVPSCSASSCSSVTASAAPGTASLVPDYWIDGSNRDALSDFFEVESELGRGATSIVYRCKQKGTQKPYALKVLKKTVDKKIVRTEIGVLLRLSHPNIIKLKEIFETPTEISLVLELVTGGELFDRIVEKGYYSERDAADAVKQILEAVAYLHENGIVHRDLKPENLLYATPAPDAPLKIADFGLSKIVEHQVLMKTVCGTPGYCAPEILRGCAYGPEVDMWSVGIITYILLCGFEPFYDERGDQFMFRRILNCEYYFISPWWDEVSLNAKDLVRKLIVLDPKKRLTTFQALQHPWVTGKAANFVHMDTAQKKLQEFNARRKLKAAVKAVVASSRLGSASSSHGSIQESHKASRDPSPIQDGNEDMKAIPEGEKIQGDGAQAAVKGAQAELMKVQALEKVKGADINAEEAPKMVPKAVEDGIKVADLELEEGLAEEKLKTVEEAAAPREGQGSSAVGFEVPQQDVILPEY

[5] = molecular target: Ribosomal protein S6 kinase alpha-1 (Homo sapiens) (UniProt Q15418); assay: Inhibition of Rsk1 assessed as activity remaining at 10 uM
[6] = molecular target: Mitogen-activated protein kinase 1 (Homo sapiens) (UniProt P28482); assay: Inhibition of MAPK1 assessed as activity remaining at 10 uM
[7] = molecular target: Vascular endothelial growth factor receptor 2 (Homo sapiens) (UniProt P35968); assay: Inhibition of KDR assessed as activity remaining at 10 uM
[8] = molecular target: T2, Serine/threonine-protein kinase Chk1 (Homo sapiens) (UniProt O14757); assay: Inhibition of CHK1 assessed as activity remaining at 10 uM
T2 sequence (whole entry): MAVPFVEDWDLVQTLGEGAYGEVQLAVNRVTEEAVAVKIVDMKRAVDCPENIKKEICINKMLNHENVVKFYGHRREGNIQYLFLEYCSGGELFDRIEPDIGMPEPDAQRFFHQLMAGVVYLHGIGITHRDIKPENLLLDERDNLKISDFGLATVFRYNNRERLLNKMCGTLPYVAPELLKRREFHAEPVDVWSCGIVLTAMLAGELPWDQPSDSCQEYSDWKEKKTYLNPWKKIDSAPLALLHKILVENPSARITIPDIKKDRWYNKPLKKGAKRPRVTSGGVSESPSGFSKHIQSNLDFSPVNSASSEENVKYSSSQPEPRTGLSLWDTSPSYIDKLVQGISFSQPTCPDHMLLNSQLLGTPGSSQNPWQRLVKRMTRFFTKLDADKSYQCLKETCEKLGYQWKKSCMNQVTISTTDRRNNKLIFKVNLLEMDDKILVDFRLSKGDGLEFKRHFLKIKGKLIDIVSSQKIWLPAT

[9] = molecular target: Tyrosine-protein kinase BTK (Homo sapiens) (UniProt Q06187); assay: Inhibition of BTK assessed as activity remaining at 10 uM
[10] = molecular target: T3, Interleukin-1 receptor-associated kinase 4 (Homo sapiens) (UniProt Q9NWZ3); assay: Inhibition of IRAK4 assessed as activity remaining at 10 uM
T3 sequence (whole entry): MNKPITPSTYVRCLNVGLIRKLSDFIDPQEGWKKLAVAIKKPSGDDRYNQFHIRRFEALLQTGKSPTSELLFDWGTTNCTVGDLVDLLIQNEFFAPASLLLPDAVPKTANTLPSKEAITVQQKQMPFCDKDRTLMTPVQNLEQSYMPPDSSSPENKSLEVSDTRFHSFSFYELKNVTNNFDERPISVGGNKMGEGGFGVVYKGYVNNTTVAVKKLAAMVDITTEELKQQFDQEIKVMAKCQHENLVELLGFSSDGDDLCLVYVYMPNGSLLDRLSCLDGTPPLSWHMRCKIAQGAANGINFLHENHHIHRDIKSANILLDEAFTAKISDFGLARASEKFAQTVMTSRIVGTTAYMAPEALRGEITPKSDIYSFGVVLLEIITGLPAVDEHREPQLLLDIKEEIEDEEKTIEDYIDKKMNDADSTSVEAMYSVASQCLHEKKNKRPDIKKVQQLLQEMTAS

[11] = molecular target: Misshapen-like kinase 1 (Homo sapiens) (UniProt Q8N4C8); assay: Inhibition of MINK assessed as activity remaining at 10 uM
[12] = molecular target: Proto-oncogene tyrosine-protein kinase Src (Homo sapiens) (UniProt P12931); assay: Inhibition of cSRC assessed as activity remaining at 10 uM
Sequence of Proto-oncogene tyrosine-protein kinase Src (Homo sapiens) (P12931 2-536 limits assumed): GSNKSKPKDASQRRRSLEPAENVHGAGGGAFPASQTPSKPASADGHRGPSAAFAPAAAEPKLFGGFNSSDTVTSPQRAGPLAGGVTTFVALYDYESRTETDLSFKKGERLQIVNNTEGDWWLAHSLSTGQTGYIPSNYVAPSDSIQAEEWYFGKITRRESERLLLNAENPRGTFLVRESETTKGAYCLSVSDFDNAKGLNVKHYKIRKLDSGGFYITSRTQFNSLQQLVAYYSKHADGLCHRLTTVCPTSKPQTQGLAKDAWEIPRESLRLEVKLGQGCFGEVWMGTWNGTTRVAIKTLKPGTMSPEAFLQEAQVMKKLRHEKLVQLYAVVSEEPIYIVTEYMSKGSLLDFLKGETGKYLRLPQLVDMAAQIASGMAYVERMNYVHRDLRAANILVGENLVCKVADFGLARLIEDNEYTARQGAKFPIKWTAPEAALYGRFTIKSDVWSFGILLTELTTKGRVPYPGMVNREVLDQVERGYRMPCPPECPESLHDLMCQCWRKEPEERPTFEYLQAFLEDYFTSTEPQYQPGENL

[13] = molecular target: RAF proto-oncogene serine/threonine-protein kinase (Homo sapiens) (UniProt P04049); assay: Inhibition of cRaf assessed as activity remaining at 10 uM
[14] = molecular target: MAP kinase-activated protein kinase 2 (Homo sapiens) (UniProt P49137); assay: Inhibition of MAPKAP-K2 assessed as activity remaining at 10 uM
[15] = molecular target: SRSF protein kinase 3 (Homo sapiens) (UniProt Q9UPE1); assay: Inhibition of MSSK1 assessed as activity remaining at 10 uM
[16] = molecular target: Mitogen-activated protein kinase 9 (Homo sapiens) (UniProt P45984); assay: Inhibition of JNK2alpha2 assessed as activity remaining at 10 uM
Sequence of Mitogen-activated protein kinase 9 (Homo sapiens) (P45984 whole entry, looked up, canonical isoform): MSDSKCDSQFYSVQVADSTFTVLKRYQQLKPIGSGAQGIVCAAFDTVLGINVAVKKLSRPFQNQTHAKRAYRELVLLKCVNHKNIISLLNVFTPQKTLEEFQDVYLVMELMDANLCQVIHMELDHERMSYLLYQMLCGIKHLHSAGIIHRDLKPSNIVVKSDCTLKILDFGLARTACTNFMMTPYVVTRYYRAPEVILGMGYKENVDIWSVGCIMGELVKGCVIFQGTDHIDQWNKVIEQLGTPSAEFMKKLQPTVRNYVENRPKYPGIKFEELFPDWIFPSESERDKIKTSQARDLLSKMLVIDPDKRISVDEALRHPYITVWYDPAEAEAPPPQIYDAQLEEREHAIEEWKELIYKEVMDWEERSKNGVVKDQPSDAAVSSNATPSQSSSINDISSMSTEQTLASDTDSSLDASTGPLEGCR

[17] = molecular target: Phosphatidylinositol 4,5-bisphosphate 3-kinase catalytic subunit alpha isoform (Homo sapiens, UniProt P42336); assay: Inhibition of PI3Kalpha
[18] = molecular target: Tyrosine-protein kinase CSK (Homo sapiens) (UniProt P41240); assay: Inhibition of CSK assessed as activity remaining at 10 uM
Sequence of Tyrosine-protein kinase CSK (Homo sapiens) (P41240 2-450 limits assumed): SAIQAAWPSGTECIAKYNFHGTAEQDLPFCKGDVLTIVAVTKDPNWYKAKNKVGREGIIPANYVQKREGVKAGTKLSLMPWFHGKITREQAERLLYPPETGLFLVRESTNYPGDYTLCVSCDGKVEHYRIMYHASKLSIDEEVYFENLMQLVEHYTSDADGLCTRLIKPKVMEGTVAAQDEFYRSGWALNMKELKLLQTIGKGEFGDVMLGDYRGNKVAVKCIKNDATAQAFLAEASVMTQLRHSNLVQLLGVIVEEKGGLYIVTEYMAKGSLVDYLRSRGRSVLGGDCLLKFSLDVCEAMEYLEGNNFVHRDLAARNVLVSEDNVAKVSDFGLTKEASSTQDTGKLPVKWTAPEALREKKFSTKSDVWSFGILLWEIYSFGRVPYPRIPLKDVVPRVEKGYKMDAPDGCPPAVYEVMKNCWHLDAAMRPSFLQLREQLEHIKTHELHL

[19] = molecular target: Hepatocyte growth factor receptor (Homo sapiens) (UniProt P08581); assay: Inhibition of Met assessed as activity remaining at 10 uM
[20] = molecular target: Protein kinase C theta type (Homo sapiens) (UniProt Q04759); assay: Inhibition of PKC-theta assessed as activity remaining at 10 uM
Sequence of Protein kinase C theta type (Homo sapiens) (Q04759 whole entry, looked up): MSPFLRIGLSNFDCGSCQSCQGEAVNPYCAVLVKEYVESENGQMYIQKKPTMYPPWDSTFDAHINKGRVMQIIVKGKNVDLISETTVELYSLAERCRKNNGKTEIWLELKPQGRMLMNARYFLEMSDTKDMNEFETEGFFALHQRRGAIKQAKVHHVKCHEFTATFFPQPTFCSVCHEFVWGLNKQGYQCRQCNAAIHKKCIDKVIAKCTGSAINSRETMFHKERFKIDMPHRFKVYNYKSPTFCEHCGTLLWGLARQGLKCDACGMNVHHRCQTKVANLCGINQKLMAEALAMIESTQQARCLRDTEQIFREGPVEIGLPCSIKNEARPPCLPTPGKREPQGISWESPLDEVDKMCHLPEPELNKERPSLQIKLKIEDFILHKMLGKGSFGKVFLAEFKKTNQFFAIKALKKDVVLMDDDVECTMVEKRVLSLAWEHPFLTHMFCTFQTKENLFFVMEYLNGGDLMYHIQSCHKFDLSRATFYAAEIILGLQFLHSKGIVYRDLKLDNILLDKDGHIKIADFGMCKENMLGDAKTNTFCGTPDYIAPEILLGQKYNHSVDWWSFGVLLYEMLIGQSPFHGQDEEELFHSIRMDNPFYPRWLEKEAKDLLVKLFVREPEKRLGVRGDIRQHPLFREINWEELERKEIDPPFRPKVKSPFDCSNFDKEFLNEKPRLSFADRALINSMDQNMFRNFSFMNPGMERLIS

[21] = molecular target: Protein kinase C alpha type (Homo sapiens) (UniProt P17252); assay: Inhibition of PKC-alpha assessed as activity remaining at 10 uM
[22] = molecular target: Tyrosine-protein kinase SYK (Homo sapiens) (UniProt P43405); assay: Inhibition of Syk assessed as activity remaining at 10 uM
[23] = molecular target: 3-phosphoinositide-dependent protein kinase 1 (Homo sapiens) (UniProt O15530); assay: Inhibition of PDK1 assessed as activity remaining at 10 uM
[24] = molecular target: Serine/threonine-protein kinase mTOR (Homo sapiens, UniProt P42345); assay: Inhibition of mTOR
[25] = molecular target: Platelet-derived growth factor receptor alpha (Homo sapiens) (UniProt P16234); assay: Inhibition of PDGFRalpha assessed as activity remaining at 10 uM
Sequence of Platelet-derived growth factor receptor alpha (Homo sapiens) (P16234 whole entry): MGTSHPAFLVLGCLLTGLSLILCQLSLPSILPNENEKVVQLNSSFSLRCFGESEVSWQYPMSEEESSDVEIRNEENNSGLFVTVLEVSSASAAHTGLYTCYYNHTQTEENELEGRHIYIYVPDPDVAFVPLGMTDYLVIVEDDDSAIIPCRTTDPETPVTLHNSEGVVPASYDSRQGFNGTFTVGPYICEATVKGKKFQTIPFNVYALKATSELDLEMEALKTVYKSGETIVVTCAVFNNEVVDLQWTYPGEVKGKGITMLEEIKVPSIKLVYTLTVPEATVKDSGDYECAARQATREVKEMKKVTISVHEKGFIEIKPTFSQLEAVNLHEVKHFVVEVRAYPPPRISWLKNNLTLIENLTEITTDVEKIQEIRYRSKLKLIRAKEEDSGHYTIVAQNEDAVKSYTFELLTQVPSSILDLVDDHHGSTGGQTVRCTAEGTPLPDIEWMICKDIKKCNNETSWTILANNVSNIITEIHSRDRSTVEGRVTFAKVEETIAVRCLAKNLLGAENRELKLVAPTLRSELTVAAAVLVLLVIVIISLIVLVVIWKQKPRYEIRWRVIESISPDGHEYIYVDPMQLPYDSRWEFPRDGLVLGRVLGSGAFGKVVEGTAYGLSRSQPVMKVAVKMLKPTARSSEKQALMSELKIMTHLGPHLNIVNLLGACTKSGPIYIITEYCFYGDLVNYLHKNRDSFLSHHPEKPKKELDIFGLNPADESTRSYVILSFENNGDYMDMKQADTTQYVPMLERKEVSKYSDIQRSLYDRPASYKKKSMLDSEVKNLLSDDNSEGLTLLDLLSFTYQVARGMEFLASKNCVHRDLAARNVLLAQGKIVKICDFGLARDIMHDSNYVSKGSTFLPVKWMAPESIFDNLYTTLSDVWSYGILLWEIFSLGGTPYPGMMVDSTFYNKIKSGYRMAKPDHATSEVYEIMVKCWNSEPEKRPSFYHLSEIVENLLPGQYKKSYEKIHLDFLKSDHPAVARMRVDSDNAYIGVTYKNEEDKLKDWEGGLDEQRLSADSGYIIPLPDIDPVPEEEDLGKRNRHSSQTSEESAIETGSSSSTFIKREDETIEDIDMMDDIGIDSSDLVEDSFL

Sequence of Serine/threonine-protein kinase PAK 4 (Homo sapiens) (O96013 whole entry, looked up): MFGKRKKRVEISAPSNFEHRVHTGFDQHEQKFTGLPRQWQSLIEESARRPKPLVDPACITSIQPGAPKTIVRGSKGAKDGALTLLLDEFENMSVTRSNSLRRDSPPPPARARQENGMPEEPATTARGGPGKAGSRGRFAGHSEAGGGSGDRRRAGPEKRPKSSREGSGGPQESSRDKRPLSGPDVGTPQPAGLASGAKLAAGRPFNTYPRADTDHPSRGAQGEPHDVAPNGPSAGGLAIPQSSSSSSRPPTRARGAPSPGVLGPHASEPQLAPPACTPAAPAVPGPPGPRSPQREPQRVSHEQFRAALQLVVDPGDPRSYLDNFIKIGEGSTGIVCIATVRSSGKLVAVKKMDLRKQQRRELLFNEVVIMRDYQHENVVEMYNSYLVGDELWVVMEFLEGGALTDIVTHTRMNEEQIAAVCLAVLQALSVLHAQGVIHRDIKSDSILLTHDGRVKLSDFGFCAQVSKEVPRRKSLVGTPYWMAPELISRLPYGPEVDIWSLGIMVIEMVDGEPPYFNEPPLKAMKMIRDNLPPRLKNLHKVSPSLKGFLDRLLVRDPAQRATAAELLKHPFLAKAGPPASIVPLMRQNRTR

Activity [1] [%] | Activity [2] [%] | Activity [3] [%] | Activity [4] [%] | Activity [5] [%] | Activity [6] [%] | Activity [7] [%] | Activity [8] [%] | Activity [9] [%] | Activity [10] [%] | Activity [11] [%] | Activity [12] [%] | Activity [13] [%] | Activity [14] [%] | Activity [15] [%] | Activity [16] [%] | IC50 [17] [µM] | Activity [18] [%] | Activity [19] [%] | Activity [20] [%] | SMILES | also measured
81 | 23 | 86 | 101 | 74 | 110 | 62 | 88 | 88 | 112 | 42 | 63 | 84 | 89 | 91 | 85 | 20.1 | 90 | 66 | 73 | O=c1[nH]c2ncc(-c3ccc4[nH]cnc4c3)nc2n1CC1CCCCC1 | Activity [21]: 82%; Activity [22]: 40%; Activity [23]: 65%; IC50 [24]: 0.021 µM; Activity [25]: 85%
87 | 83 | 96 | 103 | 93 | 86 | 88 | 97 | 90 | 97 | 92 | 92 | 70 | 93 | 93 | 79 | 2.6 | 96 | 92 | 82 | O=c1[nH]c2ncc(-c3ccc(-c4nc[nH]n4)cc3)nc2n1CC1CCOCC1 | Activity [21]: 86%; Activity [22]: 48%; Activity [23]: 91%; IC50 [24]: 0.002 µM; Activity [25]: 94%
87 | 53 | 99 | 99 | 89 | 95 | 83 | 93 | 84 | 87 | 83 | 73 | 87 | 99 | 89 | 110 | 21.9 | 86 | 94 | 80 | CC(C)(O)c1ccc(-c2cnc3[nH]c(=O)n(CC4CCCCC4)c3n2)cc1 | Activity [21]: 83%; Activity [22]: 95%; Activity [23]: 92%; IC50 [24]: 0.03 µM; Activity [25]: 93%
